Laboratory results from patent US10851089B2, “Matrix metalloproteinase (MMP) inhibitors and methods of use thereof” (Foresee Pharmaceuticals Co., Ltd., priority 2018, dated 2020).
Like-named read-outs stand apart in the source and are kept apart here. One block for each molecule: values may come before it.

Columns and labels:
Assay type in all cases: biochemical
[1] = biological target: recombinant human MMP-12 catalytic domain (Homo sapiens (Human), UniProt P39900); assay: MMP-12 inhibitory assay (fluorogenic substrate cleavage)
Experimental: (§1) The inhibitory effect of compounds on the rate of cleaving fluorogenic MMP substrate (Enzo, BML-P128) by recombinant human MMP-12 catalytic domain (Enzo, BML-SE138) was carried out by methods known in the art. Briefly, to each well of a 96-well black opaque plate, all the reagents were sequentially added by pipetting, and the final reaction contained 4 nM of recombinant human MMP-12 catalytic domain, 4 μM of fluorogenic MMP substrate, and various concentrations (0.15 nM to 10,000 nM) of tested compound dilutions in HEPES buffer (pH 7.5) containing 10 mM of CaCl2, 0.01% Brij® 35 (polyoxyethylene (23) lauryl ether), and 0.1 mg/ml of BSA.
(§2) The enzyme and compounds were pre-incubated on a shaker to mix in wells. After an hour of mixing, fluorogenic substrate was added to each well. Reaction without enzyme was used as a blank control in the plate. The plate was then fed into a plate reader to measure fluorescence intensity at Excitation/Emission wavelengths of 340 nm/440 nm every 10 mins for at least 1 hour at 37° C. The IC50 of each compound in MMP-12 inhibition was determined by using a readout obtained at time point 30 minutes.

recombinant human MMP-1 = recombinant human MMP-1 (Homo sapiens (Human), UniProt P03956); assay: MMP selectivity assay MMP-1
Experimental: as §1, §2
(§3) The MMP selectivity assay was performed by using other recombinant human MMPs, including MMP-1, MMP-2, MMP-3, MMP-7, MMP-8, MMP-9, MMP-10, MMP-13, and MMP-14. The IC50 of the compounds for the other recombinant human MMPs was determined as described above in Example 1, and are shown in Table 2.

recombinant human MMP-2 = recombinant human MMP-2 (Homo sapiens (Human), UniProt P08253); assay: MMP selectivity assay MMP-2
Experimental: as §1, §2, §3

recombinant human MMP-3 = recombinant human MMP-3 (Homo sapiens (Human), UniProt P08254); assay: MMP selectivity assay MMP-3
Experimental: as §1, §2, §3

recombinant human MMP-7 = recombinant human MMP-7 (Homo sapiens (Human), UniProt P09237); assay: MMP selectivity assay MMP-7
Experimental: as §1, §2, §3

recombinant human MMP-8 = recombinant human MMP-8 (Homo sapiens (Human), UniProt P22894); assay: MMP selectivity assay MMP-8
Experimental: as §1, §2, §3

recombinant human MMP-9 = recombinant human MMP-9 (Homo sapiens (Human), UniProt P14780); assay: MMP selectivity assay MMP-9
Experimental: as §1, §2, §3

recombinant human MMP-10 = recombinant human MMP-10 (Homo sapiens (Human), UniProt P09238); assay: MMP selectivity assay MMP-10
Experimental: as §1, §2, §3

recombinant human MMP-13 = recombinant human MMP-13 (Homo sapiens (Human), UniProt P45452); assay: MMP selectivity assay MMP-13
Experimental: as §1, §2, §3

recombinant human MMP-14 = recombinant human MMP-14 (Homo sapiens (Human), UniProt P50281); assay: MMP selectivity assay MMP-14
Experimental: as §1, §2, §3

[2] = readout at 30 minutes, read-out: MMP-12 IC50
[3] = Table 2 selectivity profile, read-out: MMP-12 activity (IC50)

recombinant human MMP-10, sequence (P09238 99-476): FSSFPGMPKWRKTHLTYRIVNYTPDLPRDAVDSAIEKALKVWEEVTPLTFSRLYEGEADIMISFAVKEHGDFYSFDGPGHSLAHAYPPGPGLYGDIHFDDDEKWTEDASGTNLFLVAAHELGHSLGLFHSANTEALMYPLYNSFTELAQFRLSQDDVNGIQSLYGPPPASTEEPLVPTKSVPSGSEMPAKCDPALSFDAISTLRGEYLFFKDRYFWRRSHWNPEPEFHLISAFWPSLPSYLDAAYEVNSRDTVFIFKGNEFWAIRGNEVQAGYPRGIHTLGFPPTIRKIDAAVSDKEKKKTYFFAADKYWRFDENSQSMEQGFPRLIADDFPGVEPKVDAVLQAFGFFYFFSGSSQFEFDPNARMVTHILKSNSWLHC
recombinant human MMP-2, sequence (P08253 110-660): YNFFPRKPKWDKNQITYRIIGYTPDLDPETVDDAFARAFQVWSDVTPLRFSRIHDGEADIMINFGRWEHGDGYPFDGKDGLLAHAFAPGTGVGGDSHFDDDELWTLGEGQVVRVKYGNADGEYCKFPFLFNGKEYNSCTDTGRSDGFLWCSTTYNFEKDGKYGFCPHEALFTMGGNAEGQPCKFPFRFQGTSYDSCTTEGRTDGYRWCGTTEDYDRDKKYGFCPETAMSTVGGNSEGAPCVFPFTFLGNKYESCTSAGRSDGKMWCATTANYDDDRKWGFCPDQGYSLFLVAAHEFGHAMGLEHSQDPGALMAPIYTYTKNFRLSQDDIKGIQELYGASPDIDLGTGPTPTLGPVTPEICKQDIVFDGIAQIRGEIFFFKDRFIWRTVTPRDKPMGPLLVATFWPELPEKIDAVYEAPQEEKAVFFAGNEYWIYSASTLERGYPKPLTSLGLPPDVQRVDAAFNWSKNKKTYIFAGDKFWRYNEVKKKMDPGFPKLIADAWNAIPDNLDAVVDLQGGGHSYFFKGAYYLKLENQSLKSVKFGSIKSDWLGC
recombinant human MMP-7, sequence (P09237 95-267): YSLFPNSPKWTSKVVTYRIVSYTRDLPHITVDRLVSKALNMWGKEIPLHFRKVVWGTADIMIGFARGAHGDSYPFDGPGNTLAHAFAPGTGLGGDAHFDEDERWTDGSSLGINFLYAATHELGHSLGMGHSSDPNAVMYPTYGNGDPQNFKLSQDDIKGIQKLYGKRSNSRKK
recombinant human MMP-1, sequence (P03956 100-469): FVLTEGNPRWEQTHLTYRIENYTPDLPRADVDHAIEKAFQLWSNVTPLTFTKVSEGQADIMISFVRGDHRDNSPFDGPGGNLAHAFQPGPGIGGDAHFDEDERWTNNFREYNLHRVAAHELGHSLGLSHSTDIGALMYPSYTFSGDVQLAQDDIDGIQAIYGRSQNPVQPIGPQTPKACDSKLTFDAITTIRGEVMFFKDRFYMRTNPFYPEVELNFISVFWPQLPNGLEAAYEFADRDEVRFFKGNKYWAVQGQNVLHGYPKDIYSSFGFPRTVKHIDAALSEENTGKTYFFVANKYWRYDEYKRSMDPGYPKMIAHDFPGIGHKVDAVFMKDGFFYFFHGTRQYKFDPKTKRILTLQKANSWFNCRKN
recombinant human MMP-3, sequence (P08254 100-477): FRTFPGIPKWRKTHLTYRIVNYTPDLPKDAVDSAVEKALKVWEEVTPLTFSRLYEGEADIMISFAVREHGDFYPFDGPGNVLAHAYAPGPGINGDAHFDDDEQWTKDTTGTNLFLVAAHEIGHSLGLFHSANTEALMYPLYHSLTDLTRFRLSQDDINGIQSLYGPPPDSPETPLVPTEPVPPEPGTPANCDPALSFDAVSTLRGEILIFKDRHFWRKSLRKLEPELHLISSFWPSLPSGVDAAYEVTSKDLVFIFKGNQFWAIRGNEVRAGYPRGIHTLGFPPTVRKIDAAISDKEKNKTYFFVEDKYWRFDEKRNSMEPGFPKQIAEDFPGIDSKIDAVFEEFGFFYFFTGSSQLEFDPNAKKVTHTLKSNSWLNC
recombinant human MMP-8, sequence (P22894 101-467): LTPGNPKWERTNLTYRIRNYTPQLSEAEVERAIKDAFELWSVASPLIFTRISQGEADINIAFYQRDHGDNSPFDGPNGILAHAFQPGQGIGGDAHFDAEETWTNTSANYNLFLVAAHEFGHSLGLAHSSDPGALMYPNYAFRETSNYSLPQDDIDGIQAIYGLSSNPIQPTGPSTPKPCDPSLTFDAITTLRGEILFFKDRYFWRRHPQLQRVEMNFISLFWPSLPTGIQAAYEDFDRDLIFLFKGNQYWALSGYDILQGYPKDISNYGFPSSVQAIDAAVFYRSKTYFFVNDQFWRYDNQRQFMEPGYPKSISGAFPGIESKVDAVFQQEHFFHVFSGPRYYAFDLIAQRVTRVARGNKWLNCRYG
recombinant human MMP-12 catalytic domain, sequence (P39900 106-263): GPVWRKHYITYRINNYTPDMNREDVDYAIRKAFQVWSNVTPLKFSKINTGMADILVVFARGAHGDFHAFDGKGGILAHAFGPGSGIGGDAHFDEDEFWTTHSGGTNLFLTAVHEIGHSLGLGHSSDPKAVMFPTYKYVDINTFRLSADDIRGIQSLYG
recombinant human MMP-9, sequence (P14780 94-707): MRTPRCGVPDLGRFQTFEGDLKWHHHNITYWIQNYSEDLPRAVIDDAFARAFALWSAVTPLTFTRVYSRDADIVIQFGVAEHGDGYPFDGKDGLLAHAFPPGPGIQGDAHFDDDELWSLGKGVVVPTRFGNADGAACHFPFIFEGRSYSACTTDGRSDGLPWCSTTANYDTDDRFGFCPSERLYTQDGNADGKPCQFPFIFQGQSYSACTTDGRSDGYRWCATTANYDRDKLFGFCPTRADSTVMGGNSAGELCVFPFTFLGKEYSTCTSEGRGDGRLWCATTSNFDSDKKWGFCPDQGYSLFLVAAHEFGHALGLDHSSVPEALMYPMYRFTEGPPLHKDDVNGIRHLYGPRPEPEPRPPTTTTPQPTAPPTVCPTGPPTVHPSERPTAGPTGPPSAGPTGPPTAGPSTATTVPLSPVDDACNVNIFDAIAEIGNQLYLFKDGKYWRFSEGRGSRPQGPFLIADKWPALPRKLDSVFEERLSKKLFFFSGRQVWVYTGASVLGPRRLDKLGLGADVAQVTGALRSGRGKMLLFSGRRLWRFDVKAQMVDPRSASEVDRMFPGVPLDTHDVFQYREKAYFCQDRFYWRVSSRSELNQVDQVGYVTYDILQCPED

Compound: CCC1(c2occc2Sc2ccc(OCc3ccnc(C)c3)cc2)NC(=O)NC1=O (stereo not shown) [FC-32]
- IC50 [1, 2]: < 10 nM

Compound: O=C1NC(=O)C(c2occc2Sc2ccc(OCc3cccc(O)c3)cc2)N1 (stereo not shown) [FC-26]
- IC50 [1, 2]: < 10 nM

Compound: Cc1cccc(COc2ccc(Sc3ccoc3C3NC(=O)NC3=O)cc2)[n+]1O (stereo not shown) [FC-5]
- IC50 [1, 2]: > 1000 nM

Compound: CCCC1(c2occc2Sc2ccc(OCc3cccc(C)c3)cc2)NC(=O)NC1=O (stereo not shown) [FC-11]
- IC50 [1, 3]: < 10 nM
- IC50 [1, 2]: < 10 nM
- IC50 (recombinant human MMP-1): > 10000 nM
- IC50 (recombinant human MMP-2): 1000 to 10000 nM
- IC50 (recombinant human MMP-3): 100 to 1000 nM
- IC50 (recombinant human MMP-7): > 10000 nM
- IC50 (recombinant human MMP-8): 1000 to 10000 nM
- IC50 (recombinant human MMP-9): 1000 to 10000 nM
- IC50 (recombinant human MMP-10): 1000 to 10000 nM
- IC50 (recombinant human MMP-13): 1000 to 10000 nM
- IC50 (recombinant human MMP-14): 1000 to 10000 nM

Compound: O=C1NC(=O)C(c2occc2Sc2ccc(OCc3ccccc3CO)cc2)N1 (stereo not shown) [FC-24]
- IC50 [1, 2]: < 10 nM

Compound: CCC1(c2occc2Sc2ccc(OCc3cccc(C)c3)cc2)NC(=O)NC1=O (stereo not shown) [FC-9]
- IC50 [1, 2]: 10 to 100 nM

Compound: COc1cc(COc2ccc(Sc3ccoc3C3NC(=O)NC3=O)cc2)ccn1 (stereo not shown) [FC-13]
- IC50 [1, 2]: 10 to 100 nM

Compound: CCOc1cccc(COc2ccc(Sc3ccoc3C3NC(=O)NC3=O)cc2)c1 (stereo not shown) [FC-20]
- IC50 [1, 2]: 100 to 1000 nM

Compound: CCOc1cc(COc2ccc(Sc3ccoc3C3NC(=O)NC3=O)cc2)ccn1 (stereo not shown) [FC-14]
- IC50 [1, 2]: 10 to 100 nM

Compound: Cc1cccc(COc2ccc(Sc3ccoc3C3(C)NC(=O)NC3=O)cc2)c1 (stereo not shown) [FC-8]
- IC50 [1, 2]: < 10 nM

Compound: CC(C)Oc1cc(COc2ccc(Sc3ccoc3C3NC(=O)NC3=O)cc2)ccn1 (stereo not shown) [FC-16]
- IC50 [1, 2]: 100 to 1000 nM

Compound: Cc1cc(CN(C)c2ccc(Sc3ccoc3C3NC(=O)NC3=O)cc2)ccn1 (stereo not shown) [FC-33]
- IC50 [1, 2]: > 1000 nM

Compound: Cc1cccc(COc2ccc(Sc3ccoc3C3NC(=O)NC3=O)cc2)n1 (stereo not shown) [FC-2]
- IC50 [1, 2]: 10 to 100 nM

Compound: Cc1cc(COc2ccc(Sc3ccoc3C3NC(=O)NC3=O)cc2)cc[n+]1[O-] (stereo not shown) [FC-7]
- IC50 [1, 2]: 10 to 100 nM

Compound: Cc1cc(COc2ccc(Sc3ccoc3C3NC(=O)NC3=O)cc2)c[n+]([O-])c1 (stereo not shown) [FC-6]
- IC50 [1, 2]: 100 to 1000 nM

Further lines, results first:

- IC50 [1, 2]: 100 to 1000 nM
Compound: CC(C)Oc1cccc(COc2ccc(Sc3ccoc3C3NC(=O)NC3=O)cc2)c1 (stereo not shown) [FC-21]

- IC50 [1, 3]: < 10 nM
- IC50 [1, 2]: < 10 nM
- IC50 (recombinant human MMP-1): > 10000 nM
- IC50 (recombinant human MMP-2): 1000 to 10000 nM
- IC50 (recombinant human MMP-3): 100 to 1000 nM
- IC50 (recombinant human MMP-7): > 10000 nM
- IC50 (recombinant human MMP-8): 1000 to 10000 nM
- IC50 (recombinant human MMP-9): 1000 to 10000 nM
- IC50 (recombinant human MMP-10): 1000 to 10000 nM
- IC50 (recombinant human MMP-13): 1000 to 10000 nM
- IC50 (recombinant human MMP-14): 1000 to 10000 nM
Compound: Cc1cccc(COc2ccc(Sc3ccoc3C3(CC(C)C)NC(=O)NC3=O)cc2)c1 (stereo not shown) [FC-10]

- IC50 [1, 2]: 10 to 100 nM
Compound: Cc1cncc(COc2ccc(Sc3ccoc3C3NC(=O)NC3=O)cc2)c1 (stereo not shown) [FC-3]

- IC50 [1, 2]: 10 to 100 nM
Compound: NC(=O)c1cc(COc2ccc(Sc3ccoc3C3NC(=O)NC3=O)cc2)ccn1 (stereo not shown) [FC-29]

- IC50 [1, 2]: 100 to 1000 nM
Compound: CC(C)COc1cc(COc2ccc(Sc3ccoc3C3NC(=O)NC3=O)cc2)ccn1 (stereo not shown) [FC-15]

- IC50 [1, 3]: < 10 nM
- IC50 [1, 2]: < 10 nM
- IC50 (recombinant human MMP-1): > 10000 nM
- IC50 (recombinant human MMP-2): 100 to 1000 nM
- IC50 (recombinant human MMP-3): 100 to 1000 nM
- IC50 (recombinant human MMP-7): > 10000 nM
- IC50 (recombinant human MMP-8): 100 to 1000 nM
- IC50 (recombinant human MMP-9): 1000 to 10000 nM
- IC50 (recombinant human MMP-10): 100 to 1000 nM
- IC50 (recombinant human MMP-13): 100 to 1000 nM
- IC50 (recombinant human MMP-14): 1000 to 10000 nM
Compound: Cc1cc(Sc2ccc(OCc3cccc(CO)c3)cc2)c(C2NC(=O)NC2=O)o1 (stereo not shown) [FC-27]

- IC50 [1, 3]: < 10 nM
- IC50 [1, 2]: < 10 nM
- IC50 (recombinant human MMP-1): > 10000 nM
- IC50 (recombinant human MMP-2): 100 to 1000 nM
- IC50 (recombinant human MMP-3): 1000 to 10000 nM
- IC50 (recombinant human MMP-7): > 10000 nM
- IC50 (recombinant human MMP-8): 1000 to 10000 nM
- IC50 (recombinant human MMP-9): 1000 to 10000 nM
- IC50 (recombinant human MMP-10): 1000 to 10000 nM
- IC50 (recombinant human MMP-13): 1000 to 10000 nM
- IC50 (recombinant human MMP-14): 1000 to 10000 nM
Compound: O=C1NC(=O)C(c2occc2Sc2ccc(OCc3cccc(CO)c3)cc2)N1 (stereo not shown) [FC-23]

- IC50 [1, 2]: 100 to 1000 nM
Compound: Cc1ccnc(COc2ccc(Sc3ccoc3C3NC(=O)NC3=O)cc2)c1 (stereo not shown) [FC-1]

- IC50 [1, 2]: 10 to 100 nM
Compound: NC(=O)c1ccc(COc2ccc(Sc3ccoc3C3NC(=O)NC3=O)cc2)cc1 (stereo not shown) [FC-18]

- IC50 [1, 2]: 10 to 100 nM
Compound: Cc1cccc(COc2ccc(Sc3cc(C)oc3C3NC(=O)NC3=O)cc2)c1 (stereo not shown) [FC-28]

- IC50 [1, 2]: < 10 nM
Compound: Cc1cccc(COc2ccc(Sc3ccoc3C3(C(C)C)NC(=O)NC3=O)cc2)c1 (stereo not shown) [FC-12]

- IC50 [1, 3]: < 10 nM
- IC50 [1, 2]: < 10 nM
- IC50 (recombinant human MMP-1): > 10000 nM
- IC50 (recombinant human MMP-2): 100 to 1000 nM
- IC50 (recombinant human MMP-3): 100 to 1000 nM
- IC50 (recombinant human MMP-7): > 10000 nM
- IC50 (recombinant human MMP-8): 100 to 1000 nM
- IC50 (recombinant human MMP-9): 1000 to 10000 nM
- IC50 (recombinant human MMP-10): 100 to 1000 nM
- IC50 (recombinant human MMP-13): 100 to 1000 nM
- IC50 (recombinant human MMP-14): 1000 to 10000 nM
Compound: NC(=O)c1cccc(COc2ccc(Sc3ccoc3C3NC(=O)NC3=O)cc2)c1 (stereo not shown) [FC-17]

- IC50 [1, 2]: > 1000 nM
Compound: CCCOc1cccc(COc2ccc(Sc3ccoc3C3NC(=O)NC3=O)cc2)c1 (stereo not shown) [FC-22]

- IC50 [1, 2]: < 10 nM
Compound: O=C1NC(=O)C(c2occc2Sc2ccc(OCc3ccc(CO)cc3)cc2)N1 (stereo not shown) [FC-25]
